Converted amounts (≈) assume the structure as drawn.
Assays:
[1] = tested on: MDA-MB-435s human breast carcinoma cells; experiment: Tumor cell inhibition ratio, CCK-8 kit, MDA-MB-435s; conditions: read-out: Antiproliferative effect (inhibition ratio) 435s
Source text: (§3) The inhibitory activities of the compounds on tumor cells in vitro

[2] = tested on: Hut78 T-Lymphocytic Leukemia cells; experiment: Tumor cell inhibition ratio, CCK-8 kit, Hut78; conditions: Homo sapiens, HuT78, read-out: Antiproliferative effect (inhibition ratio) Hut-78
Source text: as §3

[3] = tested on: A549 human lung cancer cells; experiment: Tumor cell inhibition ratio, CCK-8 kit, A549; conditions: A549, read-out: Antiproliferative effect (inhibition ratio) A549
Source text: as §3

[4] = biological target: T1, aurora kinase B (Homo sapiens, UniProt Q96GD4); experiment: Aurora kinase B inhibition in vitro (Invitrogen aurora kinase screening kit PV3174); format: biochemical
T1 construct: purchased Invitrogen PV3174

[5] = tested on: Hep3B2.1-7 human hepatoma carcinoma cells; experiment: Tumor cell inhibition ratio, CCK-8 kit, Hep3B; conditions: read-out: Antiproliferative effect (inhibition ratio) Hep3B
Source text: as §3

[6] = tested on: PC-3 human carcinoma of prostate; experiment: Tumor cell IC50, CCK-8 kit, PC-3; format: cell-based; conditions: PC-3 cells
Source text: (§1) The inhibitory activities of the compounds on tumor cells (IC50) in vitro
(§2) The IC50 (IC50, unit: μg/ml) values of the compounds on Hut78 T-Lymphocytic Leukemia cells, Jurkat E6-1 human T-cell lymphoma, PANC-1 human pancreatic cancer cells, A549 human lung cancer cells, K562 human chronicity marrow leukemic cells, Hep3B2. 1-7 human hepatoma carcinoma cells, MDA-MB-435s human breast carcinoma cells, Colo320 human rectal cancer cells, PC-3 human carcinoma of prostate, and HepG2 human hepatoma carcinoma cells were determined using a CCK-8 kit. Erlotinib hydrochloride was used as the positive control drug.

[7] = biological target: EGFR tyrosine kinase (Homo sapiens, UniProt P00533); experiment: EGFR tyrosine kinase inhibition in vitro (Invitrogen EGFR inhibitor screening kit PV3193)
Source text: The inhibitory activities of EGFR tyrosine kinase in vitro
Erlotinib hydrochloride was used as a positive control drug.

[8] = Acute Toxicity Study; conditions: in vivo; preliminary screening, Bliss statistical method
Method: The acute toxicity experiments were carried out according to the methods disclosed in the book of Modern Pharmacological Methods, edited chiefly by Zhang Jun-Tian.

[9] = tested on: PANC-1 human pancreatic cancer cells; experiment: Tumor cell inhibition ratio, CCK-8 kit, PANC-1; conditions: PANC-1, read-out: Antiproliferative effect (inhibition ratio) PANC-1
Source text: as §3

[10] = tested on: Jurkat E6-1 human T-cell lymphoma; experiment: Tumor cell IC50, CCK-8 kit, Jurkat E6-1; format: cell-based; conditions: E6-1 cells
Source text: as §1, §2

[11] = tested on: Colo320 human rectal cancer cells; experiment: Tumor cell inhibition ratio, CCK-8 kit, Colo320; conditions: COLO 320, read-out: Antiproliferative effect (inhibition ratio) Colo320
Source text: as §3

[12] = tested on: Hep3B2. 1-7 human hepatoma carcinoma cells; experiment: Tumor cell IC50, CCK-8 kit, Hep3B; format: cell-based
Source text: as §1, §2

[13] = tested on: K562 human chronicity marrow leukemic cells; experiment: Tumor cell IC50, CCK-8 kit, K562; format: cell-based
Source text: as §1, §2

[14] = tested on: MDA-MB-435s human breast carcinoma cells; experiment: Tumor cell IC50, CCK-8 kit, MDA-MB-435s; format: cell-based; conditions: 435s cells
Source text: as §1, §2

[15] = tested on: Colo320 human rectal cancer cells; experiment: Tumor cell IC50, CCK-8 kit, Colo320; format: cell-based; conditions: COLO 320
Source text: as §1, §2

[16] = tested on: PC-3 human carcinoma of prostate; experiment: Tumor cell inhibition ratio, CCK-8 kit, PC-3; conditions: read-out: Antiproliferative effect (inhibition ratio) PC-3
Source text: as §3

[17] = tested on: Jurkat E6-1 human T-cell lymphoma; experiment: Tumor cell inhibition ratio, CCK-8 kit, Jurkat E6-1; conditions: Jurkat E6.1, read-out: Antiproliferative effect (inhibition ratio) E6-1
Source text: as §3

[18] = tested on: A549 human lung cancer cells; experiment: Tumor cell IC50, CCK-8 kit, A549; format: cell-based
Source text: as §1, §2

[19] = tested on: PANC-1 human pancreatic cancer cells; experiment: Tumor cell IC50, CCK-8 kit, PANC-1; format: cell-based; conditions: PANC-1 cells
Source text: as §1, §2

[20] = tested on: Hut78 T-Lymphocytic Leukemia cells; experiment: Tumor cell IC50, CCK-8 kit, Hut78; format: cell-based; conditions: Homo sapiens, Hut-78 cells
Source text: as §1, §2

[21] = tested on: K562 human chronicity marrow leukemic cells; experiment: Tumor cell inhibition ratio, CCK-8 kit, K562; conditions: K562, read-out: Antiproliferative effect (inhibition ratio) K562
Source text: as §3

T1 sequence (Q96GD4 whole entry): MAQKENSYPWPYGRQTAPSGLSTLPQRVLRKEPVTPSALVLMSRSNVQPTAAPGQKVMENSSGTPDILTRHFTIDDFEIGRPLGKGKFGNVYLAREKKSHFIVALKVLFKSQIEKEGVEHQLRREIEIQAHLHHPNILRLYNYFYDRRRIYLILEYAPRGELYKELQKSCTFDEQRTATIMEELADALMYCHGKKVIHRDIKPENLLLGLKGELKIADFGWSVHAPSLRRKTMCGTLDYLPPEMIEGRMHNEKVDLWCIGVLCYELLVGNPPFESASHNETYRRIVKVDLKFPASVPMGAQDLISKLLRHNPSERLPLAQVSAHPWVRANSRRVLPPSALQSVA
Chain of EGFR tyrosine kinase (P00533 25-1210): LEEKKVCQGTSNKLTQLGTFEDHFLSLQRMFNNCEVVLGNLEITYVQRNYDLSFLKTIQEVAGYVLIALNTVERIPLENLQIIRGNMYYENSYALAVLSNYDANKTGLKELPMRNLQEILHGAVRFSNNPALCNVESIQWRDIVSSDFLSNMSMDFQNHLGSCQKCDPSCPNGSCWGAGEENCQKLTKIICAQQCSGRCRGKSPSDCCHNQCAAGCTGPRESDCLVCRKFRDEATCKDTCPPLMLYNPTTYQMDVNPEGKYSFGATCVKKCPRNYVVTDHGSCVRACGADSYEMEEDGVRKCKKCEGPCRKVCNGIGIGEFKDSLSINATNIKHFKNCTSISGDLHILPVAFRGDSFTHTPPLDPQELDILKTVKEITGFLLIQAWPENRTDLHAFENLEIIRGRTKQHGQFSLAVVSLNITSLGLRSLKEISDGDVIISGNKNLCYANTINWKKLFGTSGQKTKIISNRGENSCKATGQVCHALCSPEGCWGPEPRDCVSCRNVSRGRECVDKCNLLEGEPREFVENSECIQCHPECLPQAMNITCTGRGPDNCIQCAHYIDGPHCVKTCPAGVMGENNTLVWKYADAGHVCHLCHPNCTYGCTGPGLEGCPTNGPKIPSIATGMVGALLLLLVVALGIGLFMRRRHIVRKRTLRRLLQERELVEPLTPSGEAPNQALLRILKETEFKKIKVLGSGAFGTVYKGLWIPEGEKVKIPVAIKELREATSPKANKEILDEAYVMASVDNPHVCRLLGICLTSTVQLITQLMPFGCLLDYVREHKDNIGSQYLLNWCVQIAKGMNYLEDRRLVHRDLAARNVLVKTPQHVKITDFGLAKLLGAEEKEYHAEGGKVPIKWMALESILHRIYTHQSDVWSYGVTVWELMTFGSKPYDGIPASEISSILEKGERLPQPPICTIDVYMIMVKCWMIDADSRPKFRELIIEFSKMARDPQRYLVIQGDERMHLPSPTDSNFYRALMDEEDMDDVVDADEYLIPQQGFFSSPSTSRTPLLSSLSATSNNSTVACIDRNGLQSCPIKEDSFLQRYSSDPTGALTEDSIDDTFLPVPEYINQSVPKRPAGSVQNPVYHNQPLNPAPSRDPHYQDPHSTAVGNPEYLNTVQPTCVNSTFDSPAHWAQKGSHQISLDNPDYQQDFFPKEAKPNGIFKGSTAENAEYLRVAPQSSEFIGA

| SMILES | inhibition at 10 µM [1] | inhibition at 100 µM [1] | inhibition at 10 µM [2] | inhibition at 100 µM [2] | inhibition at 10 µM [3] | inhibition at 100 µM [3] | The inhibition ratio of the compound on Aurora B(%) ([4]; 40 μM) | The inhibition ratio of the compound on Aurora B(%) ([4]; 200 μM) | inhibition at 10 µM [5] | inhibition at 100 µM [5] | IC50 [6] | The inhibition ratio of the compound on EGFR(%) ([7]; 40 μM) | The inhibition ratio of the compound on EGFR(%) ([7]; 200 μM) | inhibition at 10 µM [9] | inhibition at 100 µM [9] | IC50 [10] | inhibition at 10 µM [11] | inhibition at 100 µM [11] | IC50 [12] | IC50 [13] | also measured |
| --- | --- | --- | --- | --- | --- | --- | --- | --- | --- | --- | --- | --- | --- | --- | --- | --- | --- | --- | --- | --- | --- |
| COCCOc1cc2c(cc1OCCOC)C1=Nc3cccc(Br)c3CN1C=N2.Cl [Compound V-2, 9-bromo-2,3-bis(2-methoxyethoxy)-8H-quinazolino[4,3-b]quinazoline hydrochloride hemihydrate] | 59.8% | 82.6% | 28.9% | 73.8% | 68.6% | 90.7% | 53.2% | 95.8% | 53.5% | 90% | 4.78 µg/mL | 62.9% | 97.9% | 59.7% | 95.9% | 15.3 µg/mL | 57% | 89.6% | 9.83 µg/mL | 34 µg/mL | LD50 [8]: 2050 mg/kg; IC50 [14]: 0.42 µg/mL; IC50 [15]: 32.3 µg/mL; inhibition at 10 µM [16]: 72.2%; inhibition at 100 µM [16]: 92.7%; inhibition at 10 µM [17]: 56.2%; inhibition at 100 µM [17]: 83.1%; IC50 [18]: 0.67 µg/mL; IC50 [19]: 0.11 µg/mL; IC50 [20]: 61.1 µg/mL; inhibition at 10 µM [21]: 65.4%; inhibition at 100 µM [21]: 91.1% |
| C#Cc1ccc2c(c1)N=C1c3cc(OCCOC)c(OCCOC)cc3N=CN1C2 [Compound V-19, 11-ethynyl-2,3-bis(2-methoxyethoxy)-8H-quinazolino[4,3-b]quinazoline] | 55.8% | 91.6% | 33% | 63.8% | 48.6% | 90.7% | 52.4% | 95.7% | 53.5% | 85% | 15.3 µg/mL (≈ 37.8 µM) | 53.4% | 95.7% | 49.7% | 85.9% | 12.5 µg/mL (≈ 30.7 µM) | 37% | 89.6% | 9.32 µg/mL (≈ 23 µM) | 31.1 µg/mL (≈ 76.7 µM) | IC50 [14]: 36.5 µg/mL (≈ 90.1 µM); IC50 [15]: 10 µg/mL (≈ 24.7 µM); inhibition at 10 µM [16]: 62.2%; inhibition at 100 µM [16]: 92.7%; inhibition at 10 µM [17]: 55.2%; inhibition at 100 µM [17]: 91.1%; IC50 [18]: 50 µg/mL (≈ 123 µM); IC50 [19]: 27.3 µg/mL (≈ 67.4 µM); IC50 [20]: 47.4 µg/mL (≈ 117 µM); inhibition at 10 µM [21]: 45.4%; inhibition at 100 µM [21]: 81.1% |
| COc1cc2c(cc1OCCCN1CCOCC1)C1=Nc3cc(Cl)ccc3CN1C=N2 [Compound V-28, 4-(3-((11-chloro-3-methoxy-8H-quinazolino[4,3-b]quinazoline-2-yl)oxy)propyl)morpholine] | 54.9% | 90.7% | 59.2% | 90.5% | 53.7% | 97.5% | 45.2% | 78.7% | 40.1% | 92.8% | 31.4 µg/mL (≈ 71.3 µM) | 64.4% | 98.7% | 51.7% | 95.6% | 10 µg/mL (≈ 22.7 µM) | 16.3% | 63.3% | 36.8 µg/mL (≈ 83.3 µM) | 7.84 µg/mL (≈ 17.8 µM) | IC50 [14]: 16.3 µg/mL (≈ 37 µM); IC50 [15]: 59.7 µg/mL (≈ 135 µM); inhibition at 10 µM [16]: 56.4%; inhibition at 100 µM [16]: 88%; inhibition at 10 µM [17]: 40.4%; inhibition at 100 µM [17]: 95.4%; IC50 [18]: 6.42 µg/mL (≈ 14.6 µM); IC50 [19]: 18.8 µg/mL (≈ 42.6 µM); IC50 [20]: 16.7 µg/mL (≈ 37.9 µM); inhibition at 10 µM [21]: 64.6%; inhibition at 100 µM [21]: 99.9% |
| COc1cc2c(cc1OCCCN1CCCC1)C1=Nc3cccc(Cl)c3CN1C=N2 [Compound V-24, 9-chloro-3-methoxy-2-(3-(pyrrolidine-1-yl)propoxy)-8H-quinazolino[4,3-b]quinazoline] | 48.9% | 66.2% | 44.3% | 99.6% | 50.7% | 98.2% | 52.5% | 90.3% | 60.3% | 94.6% | 3.41 µg/mL (≈ 8.02 µM) | 53.1% | 94.3% | 42.4% | 99.9% | 9.86 µg/mL (≈ 23.2 µM) | 52.7% | 99.4% | 43.1 µg/mL (≈ 101 µM) | 10.3 µg/mL (≈ 24.3 µM) | IC50 [14]: 53.4 µg/mL (≈ 126 µM); IC50 [15]: 4.76 µg/mL (≈ 11.2 µM); inhibition at 10 µM [16]: 53.5%; inhibition at 100 µM [16]: 98.9%; inhibition at 10 µM [17]: 46.6%; inhibition at 100 µM [17]: 87.3%; IC50 [18]: 23.3 µg/mL (≈ 54.8 µM); IC50 [19]: 1.94 µg/mL (≈ 4.57 µM); IC50 [20]: 2.14 µg/mL (≈ 5.04 µM); inhibition at 10 µM [21]: 53.6%; inhibition at 100 µM [21]: 93.8% |

From US20110288086A1, “POLYCYCLIC QUINAZOLINES, PREPARATION THEREOF, AND USE THEREOF” (priority 2010, published 2011)
